Assay results reported in PMC5999181, “UMP kinase activity is involved in proper chloroplast development in rice” (Photosynthesis Research, 2018).

Target: T1, YL2 (YL2-His) (Oryza sativa, UniProt Q5JJV9)
T1 construct: gene Os01g0965400; full-length cDNA (351 residues including putative 58-residue transit peptide) in pET44a, E. coli BL21, Ni-NTA
T1 sequence (Q5JJV9 1-351): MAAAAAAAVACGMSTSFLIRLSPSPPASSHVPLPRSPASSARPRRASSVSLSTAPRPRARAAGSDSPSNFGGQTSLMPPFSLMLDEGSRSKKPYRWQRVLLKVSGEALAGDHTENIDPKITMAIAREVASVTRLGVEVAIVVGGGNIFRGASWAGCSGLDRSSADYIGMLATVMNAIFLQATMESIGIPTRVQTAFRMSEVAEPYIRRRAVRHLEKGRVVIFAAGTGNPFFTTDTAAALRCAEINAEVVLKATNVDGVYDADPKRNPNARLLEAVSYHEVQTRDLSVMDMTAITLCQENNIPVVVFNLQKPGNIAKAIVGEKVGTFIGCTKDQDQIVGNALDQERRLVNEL
Assay: Kinase-Glo luminescence (residual ATP)
Format: biochemical
Conditions: 0.2 mM UMP, 10 μM ATP, 10 mM MgCl2, 1 mM DTT, 50 mM Tris-HCl pH 7.5, 30 °C, 0.5 h

Row | Compound | Kinase-Glo luminescence (residual ATP)
1 | Nc1ncnc2c1ncn2[C@@H]1O[C@H](COP(=O)(O)OP(=O)(O)OP(=O)(O)O)[C@@H](O)[C@H]1O [ATP] | decreased levels of RLU, reflecting the amount of residual ATP remaining after the UMP kinase reaction
2 | O=c1ccn([C@@H]2O[C@H](COP(=O)(O)O)[C@@H](O)[C@H]2O)c(=O)[nH]1 [UMP] | confirming that YL2 has prokaryotic UMP kinase activity in vitro
